Measured values as given in US12104188B2, “Modified caspase-9 polypeptides and methods of use thereof” (Allogene Therapeutics, Inc., priority 2017, dated 2024).

Experiments:
primary T cells = experiment: Induction of apoptosis in T cells containing chimeric caspase 9 proteins: % live GFP positive cells by flow cytometry, with or without AP1903; format: cell-based, human; conditions: for % GFP, AP1903 / % GFP, 0 mM AP1903: % GFP positive cells, 4 days after AP1903
Description: Primary T cells were prepared from each of four different human blood donors (“Donor 1”, “Donor 2”, “Donor 3” and “Donor 8”) as follows.
Previously-frozen primary T cells were thawed and activated with ImmunoCult Human CD3/CD28 T cell activator (StemCell, Cat #10971). 48 hours later, a lentiviral vector which contains a polynucleotide encoding a chimeric caspase 9 protein as described above was added to the activated primary T cells for transduction. Different lentiviral vectors were added to different samples of the primary T cells to test the activity of the different chimeric caspase 9 proteins. The respective lentiviral vectors were provided to the T cells in filtered supernatant from the HEK293T cells. T cells transduced with a polynucleotide encoding a chimeric caspase 9 protein subsequently expressed the respective chimeric caspase 9 protein.
T cells containing different chimeric caspase 9 proteins prepared as described in part A above were assayed for apoptosis in response to the dimeric ligand AP1903.
[…] On the 3rd or 4th day, the cells were measured by flow cytometry to determine the percentage of live cells that are GFP positive (+). (GFP is a marker for the chimeric caspase 9 protein.) Thus, it can be extrapolated that the greater the % of live GFP+ cells, the lower the apoptotic activity of the respective chimeric caspase 9 protein in this assay.

[1] = tested on: primary T cells from Donor #8; experiment: Example 2: induction of apoptosis in Donor #8 T cells comprising chimeric caspase-9 proteins with or without a CAR, in response to AP1903; format: cell-based, human; conditions: Day 1 post-AP1903, Donor #8 primary T cells, FIG. 6
Description: T cells derived from donor #8 comprising various different chimeric caspase 9 proteins, some of which further comprise a CAR were prepared as described in part 1A above and were assayed for expression of chimeric caspase-9 and for induced apoptosis in response to the dimeric ligand AP1903.
For each assay, about 1,000,000 cells containing a particular chimeric caspase 9 protein were incubated with or without 10 nM AP1903 for 3 or 4 days. On days 1, 2 and 3 post-AP1903 (FIGS. 6, 7, and 8, respectively), the cells were measured by flow cytometry to determine the percentage of live cells that are GFP positive (+) (GFP is a marker for the chimeric caspase 9 protein). Thus, it can be extrapolated that the greater the % of live GFP+ cells, the lower the apoptotic activity of the respective chimeric caspase 9 protein in this assay.
In FIGS. 6-9, for each different chimeric caspase-9 protein, expressed with or without a CAR, there are two adjacent bars. The left-side bar is for the cells incubated without AP1903, and the right-side bar is for the corresponding cells incubated with AP1903. […] This observation is consistent with the application of the D330M-D379E construct as a fast-acting “safety switch” for CAR-T therapies.

[2] = humans; Iuliucci J D, et al., 2001; cited from earlier work
[3] = molecular target: FKBP12 polypeptide with the F36V mutation (Homo sapiens, UniProt P62942, F37V); conditions: cited from earlier work
[4] = Table 3, Donor # 1, primary T cells
[5] = Table 4, Donor # 2, primary T cells
[6] = Table 5, Donor # 1, primary T cells
[7] = Table 6, Donor # 1, primary T cells
[8] = Table 7, Donor # 3, primary T cells

FKBP12 polypeptide with the F36V mutation, sequence (P62942 whole entry F37V): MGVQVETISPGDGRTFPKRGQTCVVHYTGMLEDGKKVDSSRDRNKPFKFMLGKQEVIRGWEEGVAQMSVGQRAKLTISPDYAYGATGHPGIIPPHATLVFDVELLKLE

Compound | % GFP, AP1903 (primary T cells; [4]) [%] | % GFP, 0 mM AP1903 (primary T cells; [4]) [%] | % GFP, AP1903 (primary T cells; [5]) [%] | % GFP, 0 mM AP1903 (primary T cells; [5]) [%] | % GFP, AP1903 (primary T cells; [6]) [%] | % GFP, 0 mM AP1903 (primary T cells; [6]) [%] | % GFP, AP1903 (primary T cells; [7]) [%] | % GFP, 0 mM AP1903 (primary T cells; [7]) [%] | % GFP, AP1903 (primary T cells; [8]) [%] | % GFP, 0 mM AP1903 (primary T cells; [8]) [%] | activity profile (high % GFP+ without AP1903, large difference with AP1903) (primary T cells; assessment of Tables 3-7) | speed of induced apoptosis relative to the N405Q construct [1] | well-tolerated dose [2] | affinity for FKBP12 with the F36V mutation compared with wild-type FKBP12 [3] | affinity of FKBP12 containing the F36V mutation for AP1903 [3]
D330M-D379E: chimeric caspase 9 protein (SEQ ID NO: 6): FKBP12 F36V dimerization domain, linker, caspase-9 polypeptide without CARD, D330M-D379E double mutation | 7 | 72 | 2 | 35 | 6.95 | 72.3 | 5.04 | 53.4 | 7 | 71 | attractive activity profiles | approximately 3 fold |  |  | 
CC[C@H](C(=O)N1CCCC[C@H]1C(=O)O[C@H](CCc1ccc(OC)c(OC)c1)c1cccc(OCC(=O)NCCNC(=O)COc2cccc([C@@H](CCc3ccc(OC)c(OC)c3)OC(=O)[C@@H]3CCCCN3C(=O)[C@@H](CC)c3cc(OC)c(OC)c(OC)c3)c2)c1)c1cc(OC)c(OC)c(OC)c1 (relative stereo) [AP1903, 2-Piperidinecarboxylic acid, 1-[(2S)-1-oxo-2-(3,4,5-trimethoxyphenyl)butyl]-, 1,2 ethanediylbis[imino(2-oxo-2,1-ethanediyl)oxy-3,1-phenylene[(1R)-3-(3,-4-dimethoxyphenyl)propylidene]]ester, [2S [1(R*),2R*[S*[S*[1(R*),2R*]]]]]-(9Cl)] |  |  |  |  |  |  |  |  |  |  |  |  | at least 1 mg/kg | much greater affinity | high affinity
